These results are taken from US20250026752A1, “POSITIVE ALLOSTERIC MODULATORS OF THE MUSCARINIC ACETYLCHOLINE RECEPTOR M4” (Vanderbilt University, priority 2021, published 2025).

For the test, the target named is T1, human mAChR M4 (Homo sapiens, UniProt P08173).
T1 construct: expressed in transfected cells; host or cells: CHO-K1 (ATCC), stably expressing hM4 and Gqi5
T1 sequence (P08173 1-479): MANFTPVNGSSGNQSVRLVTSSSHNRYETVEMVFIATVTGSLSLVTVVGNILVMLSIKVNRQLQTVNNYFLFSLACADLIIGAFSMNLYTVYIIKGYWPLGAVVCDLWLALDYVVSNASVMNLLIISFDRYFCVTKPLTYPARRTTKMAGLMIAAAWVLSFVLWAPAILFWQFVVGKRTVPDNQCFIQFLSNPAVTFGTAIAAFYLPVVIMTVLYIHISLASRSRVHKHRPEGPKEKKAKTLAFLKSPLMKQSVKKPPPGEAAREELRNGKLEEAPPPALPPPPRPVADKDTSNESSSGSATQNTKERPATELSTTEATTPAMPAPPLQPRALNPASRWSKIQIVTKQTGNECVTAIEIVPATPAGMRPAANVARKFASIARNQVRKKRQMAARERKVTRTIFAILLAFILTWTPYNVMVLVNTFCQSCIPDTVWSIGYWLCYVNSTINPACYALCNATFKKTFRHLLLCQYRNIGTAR
The test can be described thus: mAChR M4 cell-based functional assay: calcium flux (Fluo-4, FDSS), positive allosteric modulator activity on the EC20 acetylcholine response, hM4-Gqi5 CHO-K1 cells. Also on record: Emax: dose or concentration left out as unconfirmed. The note with it: for Emax at 30 µM: CHO-K1, human M4; for pEC50: PAM activity on EC20 acetylcholine response, calcium flux, read-out: Human M4 EC50. In outline:
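CHO-K1 cells stably expressing human M4 with chimeric Gqi5, loaded with Fluo-4 AM for 50 min at 37° C. Compounds (11-point, 1:3 dilutions) added first, then an acetylcholine EC20 at 144 s; calcium read on FDSS at 1 Hz. EC50 is the half-maximal increase above the EC20 baseline, four-parameter logistic fit.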

pEC50: −log10 of the molar value. Some results are limits rather than exact numbers.

The term Emax denotes the maximal effect, on the per cent scale that the assay sets. The pEC50 is the negative decadic logarithm of the EC50, by convention in mol/L. For `Fc1cc2ncnc(N3CCc4ncc(N5CCCn6nc(C(F)(F)F)cc65)cc4C3)c2cc1F` [Compound 278, 6,7-difluoro-4-(3-(2-(trifluoromethyl)-6,7-dihydropyrazolo[1,5-a]pyrimidin-4(5H)-yl)-7,8-dihydro-1,6-naphthyridin-6(5H)-yl)quinazoline], the maximal effect (Emax) at 30 µM (% ACh maximum at 30 μM) turned out to be 76%. Under “human M4”, the negative-log EC50 (pEC50) is 6.39.

For `Cc1nc(N2CCc3ncc(-c4cc(F)ccc4C)cc3C2)c2cc(F)ccc2n1` [Compound 295, 6-fluoro-4-(3-(5-fluoro-2-methylphenyl)-7,8-dihydro-1,6-naphthyridin-6(5H)-yl)-2-methylquinazoline], the Emax at 30 µM (% ACh maximum at 30 μM) was 85%. Besides, the negative-log EC50 (pEC50) (human M4) was 5.58.

Take `Fc1cc2c(N3CCc4ncc(C(F)(F)F)cc4C3)nc(N3CCOCC3)nc2cc1Cl` [Compound 209, 4-[7-chloro-6-fluoro-4-[3-(trifluoromethyl)-7,8-dihydro-5H-1,6-naphthyridin-6-yl]quinazolin-2-yl]morpholine]: under “% ACh maximum at 30 μM”, the Emax at 30 µM worked out at 50%. The negative logarithm of the EC50 (pEC50) (human M4) was under 5.00.

With `Cc1nc(N2CCc3ncc(Nc4ccnn4C)cc3C2)c2cc(F)ccc2n1` [Compound 86, 6-(6-fluoro-2-methyl-quinazolin-4-yl)-N-(2-methylpyrazol-3-yl)-7,8-dihydro-5H-1,6-naphthyridin-3-amine], the Emax at 30 µM (% ACh maximum at 30 μM) came out at 91%. Also, the pEC50 (human M4) was 7.52.

`CC(C)(O)CNc1nc(N2CCc3ncc(C(F)(F)F)cc3C2)c2cc(F)ccc2n1` [Compound 203, 1-[[6-fluoro-4-[3-(trifluoromethyl)-7,8-dihydro-5H-1,6-naphthyridin-6-yl]quinazolin-2-yl]amino]-2-methyl-propan-2-ol]: the maximum response (Emax) at 30 µM (% ACh maximum at 30 μM) worked out at 90%. Under “human M4”, the negative-log EC50 (pEC50) was 6.39.

For the compound `Fc1ccc2ncnc(N3CCc4ncc(N5CCCn6nccc65)cc4C3)c2c1` [Compound 74, 4-[3-(6,7-dihydro-5H-pyrazolo[1,5-a]pyrimidin-4-yl)-7,8-dihydro-5H-1,6-naphthyridin-6-yl]-6-fluoro-quinazoline], the maximum response (Emax) at 30 µM (% ACh maximum at 30 μM) was determined as 82%. Further, under “human M4”, the pEC50 was 8.00.

Turning to `Cc1nc(N2CCc3ncc(C(F)(F)F)cc3C2)c2cc(F)c(C)cc2n1` [Compound 172, 6-fluoro-2,7-dimethyl-4-[3-(trifluoromethyl)-7,8-dihydro-5H-1,6-naphthyridin-6-yl]quinazoline], the maximal effect (Emax) at 30 µM (% ACh maximum at 30 μM) amounted to 81%. The pEC50 (human M4) is 6.09.

Take `CC1CN(c2ncnc3ccc(F)cc23)Cc2cc(N(c3cccnc3)c3cccnc3)cnc21` (stereo not drawn) [Compound 235, 6-(6-fluoroquinazolin-4-yl)-8-methyl-N,N-di(pyridin-3-yl)-5,6,7,8-tetrahydro-1,6-naphthyridin-3-amine]: the Emax at 30 µM (% ACh maximum at 30 μM) is 77%. Besides, for the setting “human M4”, the pEC50 is 6.20.

Take `Cc1nc(N2CCc3ncc(-c4c(C)cnn4C)cc3C2)c2cc(Cl)ccc2n1` [Compound 256, 6-chloro-4-(3-(1,4-dimethyl-1H-pyrazol-5-yl)-7,8-dihydro-1,6-naphthyridin-6(5H)-yl)-2-methylquinazoline]: the maximal response (Emax) at 30 µM (% ACh maximum at 30 μM) was 94%. Also, the pEC50 (human M4) was 6.85.

As for `C[C@@H]1CN(c2cnc3c(c2)CN(c2ncnc4cc(F)c(F)cc24)CC3)CCO1` [Compound 241, (R)-4-(6-(6,7-difluoroquinazolin-4-yl)-5,6,7,8-tetrahydro-1,6-naphthyridin-3-yl)-2-methylmorpholine], the maximal effect (Emax) at 30 µM (% ACh maximum at 30 μM) was found to be 77%. In addition, the pEC50 (human M4) was 7.10.

Turning to `Cc1ccc2nc(NC3CCOC3)nc(N3CCc4ncc(C(F)(F)F)cc4C3)c2c1` (stereo not drawn) [Compound 207, 6-methyl-N-tetrahydrofuran-3-yl-4-[3-(trifluoromethyl)-7,8-dihydro-5H-1,6-naphthyridin-6-yl]quinazolin-2-amine], the Emax at 30 µM (% ACh maximum at 30 μM) was found to be 75%. In addition, the pEC50 (human M4) is 6.36.

On to `Cc1ccc2nc(C)nc(N3CCc4ncc(-c5cc(F)ccc5C)cc4C3)c2c1` [Compound 317, 4-(3-(5-fluoro-2-methylphenyl)-7,8-dihydro-1,6-naphthyridin-6(5H)-yl)-2,6-dimethylquinazoline], for which the maximal response (Emax) at 30 µM (% ACh maximum at 30 μM) stood at 91%. Moreover, under “human M4”, the pEC50 was 5.55.

Regarding `Cc1ccc2nc(C3CC3)nc(N3CCc4ncc(-c5cnn(C6CC6)c5)cc4C3)c2c1` [Compound 175, 2-cyclopropyl-4-[3-(1-cyclopropylpyrazol-4-yl)-7,8-dihydro-5H-1,6-naphthyridin-6-yl]-6-methyl-quinazoline], the Emax at 30 µM (% ACh maximum at 30 μM) stood at 77%. The pEC50 (human M4) was 6.25.

In the case of `Cc1ccc(-c2cnc3c(c2)CN(c2nc(C(F)(F)F)nc4ccc(F)cc24)CC3)cn1` [Compound 67, 6-fluoro-4-[3-(6-methyl-3-pyridyl)-7,8-dihydro-5H-1,6-naphthyridin-6-yl]-2-(trifluoromethyl)quinazoline], the Emax at 30 µM (% ACh maximum at 30 μM) was 55%. Also, the pEC50 (human M4) is 6.18.

`Fc1ccc2ncnc(N3CCc4ncc(N5CCc6ncccc65)cc4C3)c2c1` [Compound 319, 4-(3-(2,3-dihydro-1H-pyrrolo[3,2-b]pyridin-1-yl)-7,8-dihydro-1,6-naphthyridin-6(5H)-yl)-6-fluoroquinazoline]: the maximal response (Emax) at 30 µM (% ACh maximum at 30 μM) is 74%. For the same compound, the pEC50 (human M4) is 7.52.

As for `CN1CCN(c2cnc3c(c2)CN(c2ncnc4ccc(F)cc24)CC3)CC12COC2` [Compound 283, 8-(6-(6-fluoroquinazolin-4-yl)-5,6,7,8-tetrahydro-1,6-naphthyridin-3-yl)-5-methyl-2-oxa-5,8-diazaspiro[3.5]nonane], the maximum response (Emax) at 30 µM (% ACh maximum at 30 μM) came out at 99%. Further, the pEC50 (human M4) was 6.15.

On to `Cc1ccc(-c2cnc3c(c2)CN(c2ncnc4cc(F)c(F)cc24)CC3)cn1` [Compound 53, 6,7-difluoro-4-[3-(6-methyl-3-pyridyl)-7,8-dihydro-5H-1,6-naphthyridin-6-yl]quinazoline], for which the Emax at 30 µM (% ACh maximum at 30 μM) was determined as 84%. Besides, for the setting “human M4”, the pEC50 was 6.89.

As for `Fc1ccc2nc(Cl)nc(N3CCc4ncc(N5CCCn6nccc65)cc4C3)c2c1` [Compound 87, 2-chloro-4-[3-(6,7-dihydro-5H-pyrazolo[1,5-a]pyrimidin-4-yl)-7,8-dihydro-5H-1,6-naphthyridin-6-yl]-6-fluoro-quinazoline], for the setting “% ACh maximum at 30 μM”, the Emax at 30 µM was determined as 110%. Besides, the negative logarithm of the EC50 (pEC50) (human M4) is 6.72.

With `Cc1ccc2nc(N(C)C)nc(N3CCc4ncc(C(F)(F)F)cc4C3)c2c1` [Compound 180, N,N,6-trimethyl-4-[3-(trifluoromethyl)-7,8-dihydro-5H-1,6-naphthyridin-6-yl]quinazolin-2-amine], the Emax (CHO-K1) came out at 90%. Besides, the negative-log EC50 (pEC50) (human M4) was 6.15.

In the case of `c1cnc2nc(NC3CC3)nc(N3CCc4ncc(N5CCCn6nccc65)cc4C3)c2c1` [Compound 244, N-cyclopropyl-4-(3-(6,7-dihydropyrazolo[1,5-a]pyrimidin-4(5H)-yl)-7,8-dihydro-1,6-naphthyridin-6(5H)-yl)pyrido[2,3-d]pyrimidin-2-amine], for the setting “% ACh maximum at 30 μM”, the maximum response (Emax) at 30 µM was 70%. In addition, for the setting “human M4”, the pEC50 was 6.62.

Take `CC1CN(c2ncnc3ccc(F)cc23)Cc2cc(C(F)(F)F)cnc21` (single isomer, unassigned) [Compound 117, 6-fluoro-4-[(8R or S)-8-methyl-3-(trifluoromethyl)-7,8-dihydro-5H-1,6-naphthyridin-6-yl]quinazoline]: the “Emax (%)” value (human M4, % ACh maximum at 30 μM) came out at 100%. Besides, under “human M4”, the pEC50 is 6.40.

`Cc1ccc2ncnc(N3CCc4ncc(N5CCCn6nccc65)cc4C3)c2c1` [Compound 78, 4-[3-(6,7-dihydro-5H-pyrazolo[1,5-a]pyrimidin-4-yl)-7,8-dihydro-5H-1,6-naphthyridin-6-yl]-6-methyl-quinazoline]: the maximal effect (Emax) at 30 µM (% ACh maximum at 30 μM) came out at 129%. Moreover, under “human M4”, the negative-log EC50 (pEC50) was 7.52.

In the case of `COc1cc2c(N3CCc4ncc(C(F)(F)F)cc4C3)nc(Cl)nc2cc1F` [Compound 167, 2-chloro-7-fluoro-6-methoxy-4-[3-(trifluoromethyl)-7,8-dihydro-5H-1,6-naphthyridin-6-yl]quinazoline], where the note is “% ACh maximum at 30 μM”, the maximum response (Emax) at 30 µM is 72%. For the same compound, for the setting “human M4”, the pEC50 is 6.46.

Regarding `Cc1nc(N2CCc3ncc(-c4ccnn4C)cc3C2)c2cc(Cl)ccc2n1` [Compound 45, 6-chloro-2-methyl-4-[3-(2-methylpyrazol-3-yl)-7,8-dihydro-5H-1,6-naphthyridin-6-yl]quinazoline], the maximal response (Emax) at 30 µM (% ACh maximum at 30 μM) turned out to be 98%. Further, under “human M4”, the negative-log EC50 (pEC50) is 7.22.

Turning to `Cc1ccc2nc(C)nc(N3CCc4ncc(-c5cnc(C)s5)cc4C3)c2c1` [Compound 55, 5-[6-(2,6-dimethylquinazolin-4-yl)-7,8-dihydro-5H-1,6-naphthyridin-3-yl]-2-methyl-thiazole], for the setting “% ACh maximum at 30 μM”, the maximal response (Emax) at 30 µM worked out at 92%. Moreover, the negative-log EC50 (pEC50) (human M4) is 6.32.

Take `Cc1nn(C)cc1-c1cnc2c(c1)CN(c1ncnc3ccc(Cl)cc13)CC2` [Compound 6, 6-chloro-4-[3-(1,3-dimethylpyrazol-4-yl)-7,8-dihydro-5H-1,6-naphthyridin-6-yl]quinazoline]: the Emax at 30 µM (% ACh maximum at 30 μM) stood at 88%. Moreover, the negative logarithm of the EC50 (pEC50) (human M4) is 7.15.

With `Cc1ccc2nc(Cl)nc(N3CCc4ncc(-c5cnn(C6CC6)c5)cc4C3)c2c1` [Compound 30, 2-chloro-4-[3-(1-cyclopropylpyrazol-4-yl)-7,8-dihydro-5H-1,6-naphthyridin-6-yl]-6-methyl-quinazoline], the maximal response (Emax) at 30 µM (% ACh maximum at 30 μM) came out at 113%. Further, for the setting “human M4”, the negative logarithm of the EC50 (pEC50) was 6.29.
